Measurements reported in US20140004243A1, “SALTY TASTE ENHANCER” (AJINOMOTO CO., INC., priority 2011, published 2014).

Target: T1, Human ENaC δ, β and γ subunit (Homo sapiens, UniProt P51168+P51170+P51172)
T1 construct: expressed in transfected cells; host or cells: Xenopus laevis (African clawed frog) oocytes injected with cRNA
T1 sequence (P51172 1-802): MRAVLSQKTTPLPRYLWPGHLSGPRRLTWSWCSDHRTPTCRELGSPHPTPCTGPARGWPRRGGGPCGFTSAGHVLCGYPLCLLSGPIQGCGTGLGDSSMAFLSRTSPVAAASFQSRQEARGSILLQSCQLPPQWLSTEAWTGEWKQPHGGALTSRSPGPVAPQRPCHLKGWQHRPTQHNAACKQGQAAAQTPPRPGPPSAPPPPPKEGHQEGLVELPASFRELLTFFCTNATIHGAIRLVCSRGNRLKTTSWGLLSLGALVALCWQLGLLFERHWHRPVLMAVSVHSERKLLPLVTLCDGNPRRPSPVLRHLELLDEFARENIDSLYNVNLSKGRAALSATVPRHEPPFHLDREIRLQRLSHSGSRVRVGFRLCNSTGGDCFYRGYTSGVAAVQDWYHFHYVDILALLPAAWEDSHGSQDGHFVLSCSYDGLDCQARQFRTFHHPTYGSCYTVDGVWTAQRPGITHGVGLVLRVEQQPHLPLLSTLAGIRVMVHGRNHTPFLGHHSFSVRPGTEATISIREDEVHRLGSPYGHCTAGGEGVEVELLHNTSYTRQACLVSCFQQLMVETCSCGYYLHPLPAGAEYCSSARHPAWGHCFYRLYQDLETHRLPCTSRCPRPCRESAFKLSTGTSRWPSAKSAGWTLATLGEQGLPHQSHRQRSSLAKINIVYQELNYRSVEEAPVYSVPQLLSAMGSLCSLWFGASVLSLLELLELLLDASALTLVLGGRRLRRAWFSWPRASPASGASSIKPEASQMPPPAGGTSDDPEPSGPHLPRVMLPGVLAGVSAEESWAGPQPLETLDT
T1 sequence (P51168 1-640): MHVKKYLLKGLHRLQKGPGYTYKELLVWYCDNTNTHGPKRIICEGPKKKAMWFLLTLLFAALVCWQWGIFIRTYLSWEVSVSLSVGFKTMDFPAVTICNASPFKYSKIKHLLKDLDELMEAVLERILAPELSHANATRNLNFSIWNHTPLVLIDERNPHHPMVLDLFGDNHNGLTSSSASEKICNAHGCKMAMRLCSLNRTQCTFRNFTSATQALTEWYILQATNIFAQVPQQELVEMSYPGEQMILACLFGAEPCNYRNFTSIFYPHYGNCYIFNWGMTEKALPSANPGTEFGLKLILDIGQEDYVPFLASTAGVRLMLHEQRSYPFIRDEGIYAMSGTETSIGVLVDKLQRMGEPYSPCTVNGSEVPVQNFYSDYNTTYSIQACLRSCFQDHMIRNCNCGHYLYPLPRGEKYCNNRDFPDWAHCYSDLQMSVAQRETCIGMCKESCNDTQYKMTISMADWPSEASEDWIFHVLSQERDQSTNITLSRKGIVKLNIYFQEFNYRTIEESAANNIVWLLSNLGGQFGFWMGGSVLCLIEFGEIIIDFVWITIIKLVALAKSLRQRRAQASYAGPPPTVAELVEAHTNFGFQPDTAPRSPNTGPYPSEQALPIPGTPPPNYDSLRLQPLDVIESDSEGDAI
T1 sequence (P51170 1-649): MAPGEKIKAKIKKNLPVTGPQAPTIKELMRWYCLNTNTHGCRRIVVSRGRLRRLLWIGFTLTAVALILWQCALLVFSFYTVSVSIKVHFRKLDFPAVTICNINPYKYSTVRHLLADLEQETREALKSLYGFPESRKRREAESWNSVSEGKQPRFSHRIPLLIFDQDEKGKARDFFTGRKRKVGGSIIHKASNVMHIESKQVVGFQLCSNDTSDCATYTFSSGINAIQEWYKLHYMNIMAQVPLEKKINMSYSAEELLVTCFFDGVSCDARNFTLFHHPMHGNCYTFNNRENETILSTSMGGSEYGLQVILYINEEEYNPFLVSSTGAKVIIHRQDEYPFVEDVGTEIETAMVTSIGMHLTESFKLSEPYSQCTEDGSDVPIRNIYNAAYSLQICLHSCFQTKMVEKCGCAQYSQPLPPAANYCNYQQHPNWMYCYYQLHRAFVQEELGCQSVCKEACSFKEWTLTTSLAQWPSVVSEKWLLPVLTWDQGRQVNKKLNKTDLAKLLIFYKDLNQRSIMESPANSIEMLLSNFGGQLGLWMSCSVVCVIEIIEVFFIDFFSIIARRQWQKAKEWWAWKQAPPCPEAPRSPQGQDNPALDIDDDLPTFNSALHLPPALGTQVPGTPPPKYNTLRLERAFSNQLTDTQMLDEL
Assay: Measurement of ENaC activation potency (MED) in ENaC-expressing oocyte, Two Electrode Voltage Clamp
Format: cell-based
Conditions: minimum effective dose at which current started to increase; ENaC-expressing African clawed frog oocyte; smaller MED = higher ENaC activation potency
Experimental: ENaC activation current value, namely, the inward current in ENaC-expressing oocyte was measured as follows.
According to the method described in Motonao Nakamura, Takao Shimizu: Experiment of African clawed frog oocyte, Experimental Medicine Vol. 11, No. 3, 224-232 (1993), oocyte was collected from African clawed frog, […], and the current value was measured by a Two Electrode Voltage Clamp technique. In the present invention, ND96 (96 mM NaCl, 2 mM KCl, 1 mM MgCl2, 5 mM Hepes, 1.8 mM CaCl2, pH 7.6) was used instead of MBS buffer in the above-mentioned document. Injector NANOLITER 2000 manufactured by World Precision Instruments was used for microinjection, OpusXpress 6000A manufactured by Molecular Devices was used for current value measurement by a Two Electrode Voltage Clamp technique, and Clampfit 10.2 software manufactured by Molecular Devices was used for data analysis.
Human ENaC δ, β and γ subunit genes shown by SEQ ID NOs: 1, 2 and 3, respectively, in the Sequence Listing were each cloned into a plasmid vector, and used as a template DNA for cRNA synthesis. cRNA was synthesized using MEGAscript kit manufactured by Ambion and according to the method of the manual of the manufacturer.
A mixture of the same amount of ENaC […] cRNA (0.4 to 0.8 μg/μL), and β and γ subunits cRNA (0.4 μg/μL) was injected into the oocyte of African clawed frog at […] per oocyte, and the oocyte was cultured for 16 hr-72 hr. Thereafter, the oocyte was set on a measuring apparatus OpusXpress 6000A, the electrodes were inserted into the oocyte, the voltage was clamped at a level lower by −30 mV than the resting membrane potential by a Two Electrode Voltage Clamp technique, and the current value was measured.
To measure the ENaC activation potency, oocyte was stimulated with each test compound, and the minimum effective dose (hereinafter to be abbreviated as MED) of the compound at the time point when the electric current started to increase was measured. In this case, whichever smaller value of the minimum effective dose of the stimulation compound that increased the current value by not less than 10%, and the minimum effective concentration of the compound that increased, by not less than 25%, the electric current increase value due to the stimulation by 5 μM capsazepine (CAS NO.: 138977-28-3), as compared to the current value before addition of the compound and without stimulation, was taken as MED. A smaller MED means higher ENaC activation potency.
Each test compound was directly dissolved in ND96, or first dissolved in dimethyl sulfoxide (DMSO) to 100 mM, and then prepared by diluting the solution with ND96 to a concentration used for the evaluation. The concentration of the test compound in ND96 was prepared to various concentrations within the range of 0.1 nM to 300 μm.
ND96 as a perfusion fluid was flown at a rate of 0.5 mL/min through the measuring apparatus OpusXpress 6000A on which ENaC-expressing oocyte was set, the perfusion fluid was temporarily stopped every 3 minutes to add a test compound solution (0.25 mL) dissolved in ND96 at a rate of 0.5 mL/min. In this way, the test compound was contacted with ENaC-expressing oocyte, and whether ENaC is activated by the compound was examined by measuring the current value. After addition of the test compound, feeding of the perfusion fluid was resumed to wash away the compound to be ready for the next addition of the compound.
The compound was added successively from a low concentration to a high concentration to stimulate ENaC-expressing oocyte. The concentrations actually added was, for example, 1 nM, 3 nM, 10 nM, 30 nM, 100 nM, 300 nM; 1 μM, 3 μM, 10 μm, 30 μm, 100 μm, 300 μm; 1.2 μM, 6 μM, 30 μm, 150 μm of one test compound. The compound was added from low concentrations to high concentrations at 3 min intervals. […]

Compound	MED [µM]
Oc1ccc(NC(=S)NCCc2ccccc2)cc1O [Example 47, 1-(3,4-dihydroxyphenyl)-3-(2-phenylethyl)thiourea]	5
CC(C)CN(Cc1ccc(O)c(O)c1)C(=S)NCCc1ccccc1 [Example 48]	1
O=C1C(c2ccccc2)NC(=S)N1CCc1ccccc1 (stereo not drawn) [Example 49]	30
OC[C@H](NC(=S)NCCc1ccccc1)c1ccccc1 [Example 50]	3
OC[C@@H](Cc1ccccc1)NC(=S)NCc1ccccc1 [Example 52]	1
NC(=O)CNC(=S)NCc1ccccc1 [Example 53]	30
OC(CNC(=S)NCc1ccccc1)c1ccccc1 (stereo not drawn) [Example 54]	1
S=C(NCCc1ccccc1)N1Cc2ccccc2C1 [Example 55]	30
COC(=O)c1ccc(CNC(=S)NCCc2ccccc2)cc1 [Example 56]	10
OC[C@H](Cc1ccccc1)NC(=S)NCc1ccccc1 [Example 57]	1
S=C(NCc1ccccc1)NCC(c1ccccc1)c1ccccc1 [Example 59]	10
COc1cccc(CCNC(=S)NCc2ccccc2)c1 [Example 60]	10
Oc1ccccc1CNC(=S)NCCc1ccccc1 [Example 61]	30
Oc1ccccc1CCNC(=S)NCc1ccccc1 [Example 62]	1.1
Oc1cccc(CCNC(=S)NCc2ccccc2)c1 [Example 63]	3.3
O=[N+]([O-])c1ccc(CNC(=S)NCCc2ccccc2)cc1 [Example 64]	30
N#Cc1ccc(CNC(=S)NCCc2ccccc2)cc1 [Example 65]	3.3
CN(CCc1ccccc1)C(=S)NCc1ccccc1 [Example 66]	3 to 10
COc1cc(CNC(=S)NCCc2ccccc2)cc(OC)c1 [Example 67]	10
Oc1cc(O)cc(CNC(=S)NCCc2ccccc2)c1 [Example 68]	3

Compound	MED [µM]
ON(Cc1ccccc1)C(=S)NCCc1ccccc1 [Example 69]	1
S=C(NCCC1CCCCC1)NCc1ccccc1 [Example 70]	10
O[C@@H](CNC(=S)NCc1ccccc1)c1ccccc1 [Example 71]	1
O[C@H](CNC(=S)NCc1ccccc1)c1ccccc1 [Example 72]	1
S=C(NCCc1ccccc1Cl)NCc1ccccc1 [Example 73]	3 to 10
S=C(NCCc1ccccc1Br)NCc1ccccc1 [Example 74]	3 to 10
COC[C@@H](NC(=S)NCCc1ccccc1)c1ccccc1 [Example 75]	1
S=C(NCCc1ccccc1)N[C@H](COCc1ccccc1)c1ccccc1 [Example 76]	10
COC(CNC(=S)NCc1ccccc1)c1ccccc1 (stereo not drawn) [Example 77]	1
CC(C)(C)OC(=O)Nc1cccc(CNC(=S)NCCc2ccccc2)c1 [Example 78, tert-butyl 3-{[3-(2-phenylethyl)thioureido]methyl}phenylcarbamate]	10
Nc1cccc(CNC(=S)NCCc2ccccc2)c1 [Example 79, 1-(3-aminobenzyl)-3-(2-phenylethyl)thiourea]	1
S=C(CCCc1ccccc1)NCc1ccccc1 [Example 80, N-benzyl-4-phenylbutanethioamide]	10
S=C(CCc1ccccc1)NCCc1ccccc1 [Example 81]	10
CC(C)(C)OC(=O)NCC(=O)Nc1cccc(CNC(=S)NCCc2ccccc2)c1 [Example 82, tert-butyl (3-{[3-(2-phenylethyl)thioureido]methyl}phenylcarbamoyl)methylcarbamate]	3
COC[C@@H](Cc1ccccc1)NC(=S)NCc1ccccc1 [Example 84]	10
C[C@@H](NC(=S)NCCc1ccccc1O)c1ccccc1 [Example 85]	0.6
CS(=O)(=O)Nc1cccc(CNC(=S)NCCc2ccccc2)c1 [Example 86, 1-[3-(mesylamino)benzyl]-3-(2-phenylethyl)thiourea]	1
Cc1ccc(S(=O)(=O)Nc2cccc(CNC(=S)NCCc3ccccc3)c2)cc1 [Example 87]	10
Oc1ccccc1CCNC(=S)N[C@@H]1CCc2ccccc21 [Example 88]	0.6 to 1
